Consider 39 compounds from US20250032476A1, “ALPHA-2A ADRENERGIC RECEPTOR MODULATORS AND USES THEREOF” (The Regents of the University of California, priority 2021, published 2025).

Where two headings read alike, the source gives them in different places.

Data set [1] concerns the target T1, ALPHA-2A ADRENERGIC RECEPTOR (Homo sapiens (Human), UniProt P08913). Briefly: Gi recruitment (G protein). The class given is cell-based. Particulars: Gi recruitment; for Emax: read-out: G protein Emax (%); for functional classification (agonist / weak agonist): Table 6, result in words.
In data set [2] the target is T1, ALPHA-2A ADRENERGIC RECEPTOR
Briefly: Arrestin recruitment. Format: cell-based. On the technique in general: Activated receptors often draw arrestin, which recruitment assays turn into a signal.

Data set [3] can be described thus: Pharmacokinetics in mice (plasma, brain, CSF). The note with it: for AUC / Cmax: mouse, plasma. The class given is in vivo. As for the experimental part: Pharmacokinetics. Pharmacokinetic experiments were performed by Bienta (Enamine Biology Services) in accordance with Enamine pharmacokinetic study protocols and Institutional Animal Care and Use Guidelines (protocol number 1-2/2020). […] In each compound study, nine time points (5, 15, 30, 60, 120, 240, 360, 480 and 1440 min) were collected, each of the time point treatment group included 3 animals. There was also a control group of one animal. In the ‘9087, ‘7075, ‘4622 studies, male C57BL/6N mice were used, for PS75 CD-1 mice, and for ‘2998 male Balb/cAnN mice. For all compound studies the animals were randomly assigned to the treatment groups before the pharmacokinetic study; all animals were fasted for 4 h before dosing. For injections, ‘9087 was dissolved in Captisol—water (40%:60%, w/v), ‘4622 was dissolved in a 20% Kolliphor HS—physiological saline solution, and ‘7075, PS75, and ‘2998 were dissolved in a 20% 2-HPBCD—aqueous solution. The batches of working formulations were prepared 10 minutes prior to the in vivo study.
Mice were injected i.p. with 2,2,2-tribromoethanol at 150 mg/kg prior to drawing CSF and blood. CSF was collected under a stereomicroscope from cisterna magna using 1 mL syringes. Blood collection was performed from the orbital sinus in microtainers containing K3EDTA. Animals were sacrificed by cervical dislocation after the blood samples collection. Blood samples were centrifuged 10 min at 3000 rpm. Brain samples (right lobe) were weighed and transferred into 1.5 ml tubes. All samples were immediately processed, flash-frozen and stored at −70° C. until subsequent analysis.
Plasma samples (40 μL) were mixed with 200 μL of internal standard (IS) solution. After mixing by pipetting and centrifuging for 4 min at 6000 rpm, 4 μL of each supernatant was injected into the LC-MS/MS system. Solutions of internal standards were used to quantify compounds in the plasma samples. […] After this, the samples were centrifuged for 4 min at 14,000 rpm, and supernatant was injected into LC-MS/MS system. CSF samples (2 μL) were mixed with 40 μL of an internal stock solution. After mixing by pipetting and centrifuging for 4 min at 6,000 rpm, 5 μL of each supernatant was injected into LC-MS/MS system.
(§1) Analyses of plasma, brain and CSF samples were conducted at Enamine/Bienta. The concentrations of compounds in plasma and brain samples were determined using high performance liquid chromatography/tandem mass spectrometry (HPLC-MS/MS). Data acquisition and system control was performed using Analyst 1.5.2 software (AB Sciex, Canada). […] Pharmacokinetic data analysis was performed using noncompartmental, bolus injection or extravascular input analysis models in WinNonlin 5.2 (PharSight).
Mice were injected i.p. with 2,2,2-tribromoethanol at 150 mg/kg prior to drawing CSF and blood. CSF was collected under a stereomicroscope from cisterna magna using 1 mL syringes. Blood collection was performed from the orbital sinus in microtainers containing K3EDTA. Animals were sacrificed by cervical dislocation after the blood samples collection. Blood samples were centrifuged 10 min at 3000 rpm. Brain samples (right lobe) were weighed and transferred into 1.5 mL tubes. All samples were immediately processed, flash-frozen and stored at −70° C. until subsequent analysis.
as §1
Additional pharmacokinetic experiments were performed by Sai Life Sciences (Hyderabad, India) in accordance with the Sai Study Protocol SAIDMPK/PK-22-04-0340. […] Testing was done in C57BL/6 mice.

The target of the next data set is human α2AAR (Homo sapiens (Human), UniProt P08913). Briefly: Gαi G protein activation, BRET biosensor assay in HEK293T cells. Particulars: HEK-293T, read-out: Gαi Emax. Background: In BRET a luciferase serves as donor, and the signal depends on an acceptor being close.
Chain of human α2AAR (P08913 whole entry): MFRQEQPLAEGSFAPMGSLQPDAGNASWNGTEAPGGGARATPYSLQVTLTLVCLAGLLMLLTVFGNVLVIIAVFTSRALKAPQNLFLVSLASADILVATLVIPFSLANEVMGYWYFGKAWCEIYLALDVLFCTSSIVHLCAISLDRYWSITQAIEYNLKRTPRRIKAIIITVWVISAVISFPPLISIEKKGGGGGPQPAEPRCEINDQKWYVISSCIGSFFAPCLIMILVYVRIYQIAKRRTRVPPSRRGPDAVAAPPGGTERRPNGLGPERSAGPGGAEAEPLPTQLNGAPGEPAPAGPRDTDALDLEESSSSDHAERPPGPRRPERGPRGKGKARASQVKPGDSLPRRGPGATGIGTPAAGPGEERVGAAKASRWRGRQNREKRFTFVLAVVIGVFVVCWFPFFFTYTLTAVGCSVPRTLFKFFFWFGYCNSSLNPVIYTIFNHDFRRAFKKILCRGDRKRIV
Where [4] appears, read: Tables 7-9, read-out: G protein EC50.
The mark [5] stands for this setting: C57BL/6N ('9087), C57BL/6 (PS75), iv, I.V. 10 mg/kg.
[6] abbreviates: C57BL/6N ('9087), C57BL/6 (PS75), po, P.O. 30 mg/kg.

T1 sequence (P08913 whole entry): as above
Procedure for human α2AAR: Bioluminescense resonance energy transfer. G protein mediated activation of human α2AAR and D2long was monitored with Gαi1-RLucII (71, 72) together with Gβ1 and Gγ1-GFP10. Arrestin recruitment was performed by enhanced bystander BRET using CAAX-rGFP and β-arrestin-2-RLucII as biosensors (all biosensors are provided from M. Bouvier, Université de Montréal, Canada) (71, 73) in the presence of GRK2 as described (66, 74). In brief, HEK293T cells were transfected with a total amount of 3.3 μg DNA per 10^6 cells using linear polyethyleneimine (PEI, Polysciences, 3:1 PEI:DNA ratio) and transferred into 96-well half-area plates (Greiner, Frickenhausen, Germany) at a density of 10,000 cells per well and incubated for 48 hrs. Medium was exchanged with PBS (Hank's balanced salt solution) and cells were stimulated with ligands at 37° C. for 10 min for Gαi stimulation or arrestin recruitment, respectively.

For the compound “3-Methyl-N^1-(pyridin-2-yl)benzene-1,4-diamine [Compound 5822]”, in data set [1] (setting [4]), the half-maximal effective concentration (EC50) (usually the concentration at which the effect is half-maximal) came to 1100 nM. As to “4-(1,2,5,6-tetrahydropyridin-3-yl)-1H-indole [PS-NN04]”, the “Arrestin Emax (%)” value in data set [2] (Tables 7-9) is reported as less than 10%. In data set [1] (Tables 7-9), the “G protein Emax (%)” value was found to be 63%. The EC50 in data set [1] (setting [4]) worked out at 130 nM. For “4-Methyl-5-(1,2,5,6-tetrahydropyridin-3-yl)-1H-pyrrolo[2,3-b]pyridine [Compound 9661]”, the EC50 in data set [1] (setting [4]) stood at 680 nM. Take `N#Cc1cc2[nH]ncc2cc1-c1ccc(N)nc1` [BSC2998-E02]: the “Arrestin effect at 100 μM” value in data set [2] (at 100 μM) stood at 25% at 100 μM. In addition, the EC50 in data set [1] (setting [4]) is 2900 nM. The Emax (as a rule, the greatest response seen or fitted, relative to the assay's reference) in data set [1] (Tables 7-9) is 14%. For `CN(c1cccc(Cl)c1)c1cc(N)ccn1` [Compound 2029, N^2-(3-Chlorophenyl)-N^2-methylpyridine-2,4-diamine], the EC50 in data set [1] (setting [4]) came to 1400 nM. Still for that read-out and setting: next, `C1=C(c2cccc3ccccc23)CNCC1` [Compound 3461, 5-(Naphthalen-1-yl)-1,2,3,6-tetrahydropyridine]: 450 nM; `C1=C(c2cccc3c2CCC3)CNCC1` [Compound 3827, 5-(2,3-dihydro-1H-inden-4-yl)-1,2,3,6-tetrahydropyridine]: 390 nM; `Cc1ccc(Nc2ccccn2)cc1C` [Compound 4472, N-(3,4-Dimethylphenyl)pyridin-2-amine]: 3300 nM. As for `Nc1ccnc(Oc2ccc(F)cc2)c1` [Compound 4783, 2-(4-Fluorophenoxy)pyridin-4-amine], the EC50 in data set [1] (setting [4]) stood at 580 nM. The same measure, in the same setting: next, `Cc1c(-c2cccnc2N)ccc2[nH]ncc12` [Compound 5193, 3-(4-Methyl-1H-indazol-5-yl)pyridin-2-amine]: 3100 nM; `Cc1cc(-c2ccc3[nH]ncc3c2C)cnc1N` [Compound 5649, 3-Methyl-5-(4-methyl-1H-indazol-5-yl)pyridin-2-amine]: 1000 nM; `CN(c1ccc(N)c(F)c1)c1ccccn1` [Compound 6254, 3-Fluoro-N^1-methyl-N^1-(pyridin-2-yl)benzene-1,4-diamine]: 5400 nM. Still for that read-out and setting: the same measure for `Nc1ccc(Nc2ccccn2)cc1Cl` [Compound 7502, 3-Chloro-N^1-(pyridin-2-yl)benzene-1,4-diamine]: 460 nM; for `Nc1ncccc1-c1ccc2scnc2c1` [Compound 8723, 3-(Benzo[d]thiazol-5-yl)pyridin-2-amine]: 1300 nM.

Consider `c1ccc2c(Nc3ccncc3)cncc2c1` [Compound 9087, N-(pyridin-4-yl)isoquinolin-4-amine], for which, in data set [3] (setting [5]), the AUC (in general, the area under the concentration-time curve, a measure of exposure) is 1750 ng·h/mL and the Cmax (commonly the highest concentration seen after dosing) was 2020 ng/mL. In data set [3] (setting [6]), this compound showed an AUC of 8430 ng·h/mL and a Cmax of 2720 ng/mL. In data set [3] (I.P. 10 mg/kg), the “AUC Brain” value stood at 439000 ng·min/mL, the “AUC CSF” value is 154000 ng·min/mL, the “Cmax Brain” value was determined as 5960 ng/mL and the “Cmax CSF” value was 447 ng/mL. Also, the “Cmax Brain” value in data set [3] (I.V. 10 mg/kg) worked out at 6590 ng/mL. For the same compound, the “Cmax Brain” value in data set [3] (P.O. 30 mg/kg) turned out to be 14000 ng/mL. In data set [3] (ip, I.P. 10 mg/kg), this compound showed an AUC of 1830 ng·h/mL and a Cmax of 1440 ng/mL. As for `Nc1ncccc1-c1ccc2[nH]ncc2c1` [Compound 9241, 3-(1H-Indazol-5-yl)pyridin-2-amine], the EC50 in data set [1] (setting [4]) turned out to be 2100 nM. The same measure, in the same setting: next, `C=C(c1ccccc1)c1cccnc1N` [Compound 9280]: 2600 nM. Regarding `CN(c1cccc(O)c1)c1cc(N)ccn1` [Compound 9448, 3-((4-Aminopyridin-2-yl)(methyl)amino)phenol], the EC50 in data set [1] (setting [4]) amounted to 2900 nM. As to `Cc1cc(Nc2ccncc2)c2ccccc2n1` [Compound 9506, 2-methyl-N-(pyridin-4-yl)quinolin-4-amine], the “functional classification (agonist / weak agonist)” value in data set [1] is reported as “weak agonist”. For the same compound, in data set [1] (Table 6, read-out: EC50), the EC50 was 950 nM. Turning to `Cc1coc2ccc(C3=CCCNC3)cc12` [Compound 9677, 5-(3-Methylbenzofuran-5-yl)-1,2,3,6-tetrahydropyridine], the concentration for a half-maximal effect (EC50) in data set [1] (setting [4]) came to 170 nM.

Take `C=C(c1ccccc1)c1c(F)ccnc1N` [Compound 9689]: the EC50 in data set [1] (setting [4]) stood at 7300 nM.

For `C1=C(c2ccc3c(c2)CCO3)CNCC1` [Compound 9700, 5-(2,3-Dihydrobenzofuran-5-yl)-1,2,3,6-tetrahydropyridine], the EC50 in data set [1] (setting [4]) amounted to 800 nM. Regarding `Cc1cccc(N(C)c2ccc(N)nc2)c1` [Compound 9878, N^5-methyl-N^5-(m-tolyl)pyridine-2,5-diamine], the EC50 in data set [1] (setting [4]) amounted to 1100 nM. Regarding `NC[C@H](O)c1ccc(O)c(O)c1` [NorEpi, norepinephrine, reference compound], the Emax at human α2AAR amounted to 100%. For `COc1ccc2c(Nc3ccncc3)cccc2c1` [PS73], in data set [1] (Table 6, read-out: EC50), the EC50 turned out to be 50 nM.

Regarding `Cc1cc2c(Nc3ccncc3)cccc2cn1` [PS74], in data set [1], the “functional classification (agonist / weak agonist)” value is “agonist”. Further, the EC50 in data set [1] (Table 6, read-out: EC50) worked out at 450 nM.

`Fc1ccc2cncc(Nc3ccncc3)c2c1` [PS76]: the “functional classification (agonist / weak agonist)” value in data set [1] is reported as “agonist”. In data set [1] (Table 6, read-out: EC50), the EC50 is 89 nM. In the same order, the values of `CN1CCc2c(Nc3ccncc3)cccc2C1=O` [PS77] are “agonist” and 1200 nM. In the same order, the values of `CN1C(=O)CCc2c(Nc3ccncc3)cccc21` [PS78] are “agonist” and 43 nM. On the same counts, the results for `COc1cccc2c(Nc3ccncc3)cncc12` [PS79] are “agonist” and 100 nM. As for `Fc1cccc2c(Nc3ccncc3)cncc12` [PS82], in data set [1], the “functional classification (agonist / weak agonist)” value is reported as “agonist”. Further, the EC50 in data set [1] (Table 6, read-out: EC50) came out at 230 nM. On the same counts, the results for `Oc1ccc2c(Nc3ccncc3)cccc2c1` [PS85] are “agonist” and 87 nM. For `N#Cc1ccc(C2=CCCNC2)c2cccnc12` [PS-NN05], the Emax in data set [2] (Tables 7-9) is less than 10%; in data set [1] (Tables 7-9) it was less than 5%. `C1=C(c2cccc3ncncc23)CNCC1` [PS-NN06]: the Emax in data set [2] (Tables 7-9) and in data set [1] (Tables 7-9) was less than 10% each time.

Turning to `Nc1ccc(-c2cc([N+](=O)[O-])c3[nH]ncc3c2)cn1` [TP70, 5-(7-Nitro-1H-indazol-5-yl)pyridin-2-amine], the figures for the Emax in data set [2] (Tables 7-9) and in data set [1] (Tables 7-9) were less than 10% and -27%, respectively. Moreover, the EC50 in data set [1] (setting [4]) came out at 3200 nM. On the same counts, the results for `Nc1ccc(-c2cc(Cl)c3[nH]ncc3c2)cn1` [TP73, 5-(7-Chloro-1H-indazol-5-yl)pyridin-2-amine] are less than 10%, 27% and 8700 nM.

As to `Nc1ccc(-c2cc3cn[nH]c3cc2Cl)cn1` [TP74, 5-(6-Chloro-1H-indazol-5-yl)pyridin-2-amine], the results for the Emax in data set [2] (Tables 7-9) and in data set [1] (Tables 7-9) were less than 10% and 64%, respectively. The EC50 in data set [1] (setting [4]) came out at 200 nM. In the same order, the values of `Nc1ccc(-c2cc3cn[nH]c3cc2F)cn1` [TP75, 5-(6-Fluoro-1H-indazol-5-yl)pyridin-2-amine] are less than 10%, 18% and 89 nM.

In the case of `Nc1ccc(-c2cc3cn[nH]c3cc2[N+](=O)[O-])cn1` [TP78, 5-(6-Nitro-1H-indazol-5-yl)pyridin-2-amine], the Emax in data set [2] (Tables 7-9) is less than 10%; in data set [1] (Tables 7-9) it was 51%. In addition, the EC50 in data set [1] (setting [4]) came to 910 nM.
